# Assay results: US20240425497A1, “Cbl-b Inhibitors and Methods of Use Thereof” (ARCUS BIOSCIENCES, INC., priority 2023, published 2024)
# Tests used:
# Cbl-b = Cbl-b (Homo sapiens (Human), UniProt Q13191); assay: Cbl-b probe displacement HTRF binding assay; details: 0.4 nM biotinylated Cbl-b, 150 nM BODIPY probe
# Description: The affinity with which compounds of the present disclosure bind to Cbl-b was assessed using probe displacement homologous time resolved fluorescence (HTRF) assays. The assays used a BODIPY™ conjugated probe (Example 54 from WO 2020264398) and biotinylated Cbl-b. The assays were performed in assay buffer consisting of 20 mM Hepes, 150 mM NaCl, 0.01% Triton X-100, 0.5 mM TCEP, 0.01% BSA. On the day of the assay, a 20 point, 1:2 master serial dilution of each compound was prepared in DMSO to span a final concentration range of 10 μM to 0 nM. Two hundred nanoliters of diluted compound was added to each well of a 384-well plate. Fifteen microliters of biotinylated-Cbl-b resuspended in assay buffer were added to each well and the plate incubated for 60 minutes at room temperature prior to addition of 5 μL of BODIPY™ probe in assay buffer. Final assay conditions included 0.4 nM of Cbl-b and 150 nM of BODIPY™ probe. After a further 15 minutes of incubation at room temperature, 5 μl of Streptavidin-Terbium cryptate reagent at 5-fold final concentration was added to each well of the 384-well plate. Binding of a probe to Cbl-b results in an increase of HTRF signal. HTRF signal was measured by Envision plate reader, while competition of a compound of the present disclosure with probe results in a decrease of signal. Percentage maximum activity in each test well was calculated based on DMSO (maximum activity, 0% displacement) and no protein control wells (baseline activity, 100% displacement). Binding affinity was determined from a dose response curve fitted using a standard four parameter fit equation. See Table 3 for data for compounds (Cbl-b Binding (IC50)).
# Jurkat cells = assay: IL-2 secretion assay in CD3/CD28-activated Jurkat cells (AlphaLISA); format: cell-based, human; details: Homo sapiens, CD3/CD28 activation, 24 h
# Description: Certain compounds were also evaluated in an IL-2 secretion assay. On the day of the assay, a 16 point, 1:2 master serial dilution of each compound was prepared in Opti-MEM to span a final concentration range of […]. Assays were set up in CORNING® tissue culture-treated 384-well microplates containing 60 nL of each dilution. Jurkat cells grown in RPMI-1640 supplemented with 10% FBS, 1% Glutamax, and 1% Pen/Strep were collected, resuspended in Opti-MEM. 50,000 cells/well and added to the compound plates. After a short spin (1200 rpm for 1 min), the plates were incubated at 37° C. for 1 hour. The cells were activated by adding 15 μL of IMMUNOCULT™ Human CD3/CD28 T Cell Activator (STEMCELL Technologies) diluted in Opti-MEM. After 24 h of incubation at 37° C., aliquots of culture supernatants were transferred to OptiPlate-384 (PerkinElmer) microplates. The level of JIL-2 secretion in the supernatants was then determined using the IL-2 (human) AiphaLISA Detection Kit (PerkinElmer) according to the manufacturer's recommendations. The AiphaLISA signal was measured using an EnVision plate reader (PerkinElmer). EC50 values were determined by fitting the data to a standard 4-parameter logistic equation. See Table 3 for data for select compounds (IL-2 Secretion (EC50)).
# Chain of Cbl-b (Q13191 whole entry, species assumed): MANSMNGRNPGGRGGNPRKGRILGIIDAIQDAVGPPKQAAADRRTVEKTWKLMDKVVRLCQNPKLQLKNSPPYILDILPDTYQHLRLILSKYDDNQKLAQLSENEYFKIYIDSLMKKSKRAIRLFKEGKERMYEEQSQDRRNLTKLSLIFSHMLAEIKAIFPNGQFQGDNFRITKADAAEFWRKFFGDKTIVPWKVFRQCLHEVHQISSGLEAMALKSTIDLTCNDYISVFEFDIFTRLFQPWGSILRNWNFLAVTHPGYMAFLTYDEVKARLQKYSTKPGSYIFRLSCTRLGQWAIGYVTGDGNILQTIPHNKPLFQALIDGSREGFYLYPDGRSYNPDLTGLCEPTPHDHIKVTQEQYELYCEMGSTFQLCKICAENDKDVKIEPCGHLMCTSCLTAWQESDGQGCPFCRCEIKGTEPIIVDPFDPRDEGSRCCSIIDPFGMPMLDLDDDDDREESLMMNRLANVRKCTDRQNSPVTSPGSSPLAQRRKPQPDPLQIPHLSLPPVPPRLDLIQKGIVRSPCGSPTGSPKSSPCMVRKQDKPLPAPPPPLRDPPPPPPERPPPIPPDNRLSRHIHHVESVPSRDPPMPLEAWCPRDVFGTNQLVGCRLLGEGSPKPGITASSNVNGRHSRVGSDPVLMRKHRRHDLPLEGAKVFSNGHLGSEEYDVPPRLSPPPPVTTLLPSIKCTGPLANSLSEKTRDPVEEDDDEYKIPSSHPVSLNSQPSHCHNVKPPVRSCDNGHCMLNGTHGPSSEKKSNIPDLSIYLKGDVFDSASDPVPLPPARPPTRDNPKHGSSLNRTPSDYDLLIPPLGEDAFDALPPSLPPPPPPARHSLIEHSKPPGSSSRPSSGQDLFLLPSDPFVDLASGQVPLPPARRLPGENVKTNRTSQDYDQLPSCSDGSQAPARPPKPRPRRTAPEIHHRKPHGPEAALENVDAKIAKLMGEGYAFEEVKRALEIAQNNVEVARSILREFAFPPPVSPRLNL
SMILES,IC50 (Cbl-b) [µM],EC50 (Jurkat cells) [µM]
"C[C@H]1CCCN(Cc2nc3c(C(F)(F)F)cn(-c4cc(-c5ccc(F)cc5C(=O)N5CC(F)C5)cc(C5CC5)n4)c(=O)c3[nH]2)C1 [Example 48, 5-[6-cyclopropyl-4-[4-fluoro-2-(3-fluoroazetidine-1-carbonyl)phenyl]pyridin-2-yl]-2-[[(3S)-3-methylpiperidin-1-yl]methyl]-7-(trifluoromethyl)-3H-imidazo[4,5-c]pyridin-4-one]",< 0.1,< 0.1
"CC1(NCc2cc3ncn(-c4cc(-c5ccc(F)cc5C(=O)N5CC(F)C5)cc(C5CC5)n4)c(=O)c3[nH]2)CCC1 [Example 36, 3-[6-cyclopropyl-4-[4-fluoro-2-(3-fluoroazetidine-1-carbonyl)phenyl]pyridin-2-yl]-6-[[(1-methylcyclobutyl)amino]methyl]-5H-pyrrolo[3,2-d]pyrimidin-4-one]",< 0.1,< 0.1
"CCN(C)C(=O)c1cc(F)ccc1-c1cc(C2CC2)nc(-n2cc(C3CC3)c3cc(CN4CCC[C@H](C)C4)[nH]c3c2=O)c1 [Example 13, N-ethyl-N-methyl2-[2-(2-{[(S)-3-methyl-1-piperidyl]methyl}-4-cyclopropyl-7-oxo-1,6-dihydro-1,6-diaza-6-indenyl)-6-cyclopropyl-4-pyridyl]-5-fluorobenzamide]",< 0.1,0.1 to 1
"C[C@@H]1CN(Cc2cc3ncn(-c4cc(-c5ccc(F)cc5C(=O)N5CC(F)C5)cc(C5CC5)n4)c(=O)c3[nH]2)CCO1 [Example 26, 3-[6-cyclopropyl-4-[4-fluoro-2-(3-fluoroazetidine-1-carbonyl)phenyl]pyridin-2-yl]-6-[[(2R)-2-methylmorpholin-4-yl]methyl]-5H-pyrrolo[3,2-d]pyrimidin-4-one]",< 0.1,< 0.1
"COCCNCc1cc2ncn(-c3cc(-c4ccc(F)cc4C(=O)N4CC(F)(F)C4)cc(C4CC4)n3)c(=O)c2[nH]1 [Example 44, 6-(6-cyclopropyl-4-{2-[(3,3-difluoro-1-azetidinyl)carbonyl]-4-fluorophenyl}-2-pyridyl)-2-[(2-methoxyethylamino)methyl]-1,6-dihydro-1,4,6-triaza-7-indenone]",< 0.1,< 0.1
"C[C@H]1CCCN(Cc2cc3c(C4CC4)cn(-c4cc(-c5ccc(F)cc5C(=O)N(C)c5ccccc5)cc(C5CC5)n4)c(=O)c3[nH]2)C1 [Example 8, N-methyl-N-phenyl-2-[2-(2-{[(S)-3-methyl-1-piperidyl]methyl}-4-cyclopropyl-7-oxo-1,6-dihydro-1,6-diaza-6-indenyl)-6-cyclopropyl-4-pyridyl]-5-fluorobenzamide]",0.1 to 1,> 5
"CC(O)c1cc2ncn(-c3cc(-c4ccc(F)cc4C(=O)N4CC(F)C4)cc(C4CC4)n3)c(=O)c2[nH]1 (stereo not drawn) [Example 27, 6-(6-cyclopropyl-4-{4-fluoro-2-[(3-fluoro-1-azetidinyl)carbonyl]phenyl}-2-pyridyl)-2-(1-hydroxyethyl)-1,6-dihydro-1,4,6-triaza-7-indenone]",0.1 to 1,1 to 5
"COCCN(C)Cc1cc2ncn(-c3cc(-c4ccc(F)cc4C(=O)N4CC(F)(F)C4)cc(C4CC4)n3)c(=O)c2[nH]1 [Example 38, 3-[6-cyclopropyl-4-[2-(3,3-difluoroazetidine-1-carbonyl)-4-fluorophenyl]pyridin-2-yl]-6-[[2-methoxyethyl(methyl)amino]methyl]-5H-pyrrolo[3,2-d]pyrimidin-4-one]",< 0.1,0.1 to 1
"O=C(c1cc(F)ccc1-c1cc(C2CC2)nc(-n2cc(C3CC3)c3cc(CN[C@H]4CCC[C@H]4O)[nH]c3c2=O)c1)N1CC(F)C1 [Example 17, 2-{[(1S,2R)-2-hydroxycyclopentylamino]methyl}-4-cyclopropyl-6-(6-cyclopropyl-4-{4-fluoro-2-[(3-fluoro-1-azetidinyl)carbonyl]phenyl}-2-pyridyl)-1,6-dihydro-1,6-diaza-7-indenone]",< 0.1,< 0.1
